Measured values reported in patent US5026836A, “6-sulfenamide, 6-sulfinamide and 6-sulfonamide purines, purine nucleosides, purine nucleotides, pharmaceutical compositions, and processes of making” (priority 1988, dated 1991).
“Also recorded” adds a separate entry of the source. Where two headings read alike, the source gives them in different places.

Tests used:
L1210 cells [1] = assay: Bioassay of viable L1210 cells in brain after intracranial inoculation and ip drug; format: in vivo, mouse; conditions: for Residual cells (% of control brain): 24 hr after single ip dose (mg/kg): Methotrexate 12, Adriamycin 3, 6-Mercaptopurine 160, Cytosine Arabinoside 1200, Cyclophosphamide 140, Compound 19 173, Tiazofurin 1200, BCNU 20; for intracranial activity: intracranial L1210; for Activity against I.C. L1210 cells, Cell Kill: ip dosage: Compound 18 22 mg/kg, Compound 19 173 mg/kg, Compound 20 62 mg/kg; for crossing of blood brain barrier / CNS penetration (words): mouse, in vivo
Description: BDF1 mice were inoculated intracranially on day 0 with 1×10^5 L1210 cells. […] 24 hr after drug delivery the brains were collected, homogenized, and injected ip into untreated mice. Each mouse received the equivalent of half a brain. Thereafter, life span was monitored and, using inoculum-response data as a base of comparison, estimates were made of the numbers of viable cells in treated and control brains.

[2] = tested on: Human Colon Adenocarcinoma CX-1; conditions: data from Goldin et al 1981; activity indicated at ≤20; cited from earlier work
[3] = tested on: drug resistant cell lines; conditions: background knowledge; cited from earlier work
adenocarcinoma = conditions: background; cited from earlier work
[4] = Solubility (maximum solubility); format: physicochemical
[5] = Toxicity / maximum tolerated dosage in mice; format: in vivo; conditions: mouse, in vivo, single QD day 1 ip, L1210-inoculated BDF1 mice, read-out: Max. tolerated dosage
Description: In Example N other compounds of the invention were tested against L1210 cells. […] Activity in Table 14-a is tabulated as both increases in life span and as cells surviving treatment and that in table 14-b as T/C.

L1210 cells [6] = assay: Life span of BDF1 mice inoculated ip with 10^6 L1210 leukemia cells; format: in vivo, mouse
Description: As illustrative examples of use of the compounds of the invention the following examples are given. […] These standard tests utilize protocols developed under the auspices of the Developmental Therapeutics Program, Division of Cancer Treatment, National Cancer Institute, Bethesda, Md., U.S.A. Except as otherwise indicated the tests conform to these protocols and are evaluated utilizing criteria defined by the protocols.
(§1) Values below 25% are considered capable of producing effective therapy, those below 10% are considered good and those below 5% are considered very good. This expresses the percent of the cells which survived treatment based upon the original cells in the inoculum. Those tests expressed as increases in life span (% ILS) indicate the increased life span of the drug treated group compared to a control group.
(§2) As an indicator of reproducible activity, compounds of the invention and other known cancer chemotherapeutic agents were screened against L1210 lymphoid leukemia in vivo utilizing the mouse as a test species. Normal NCI protocols for this test require 10^5 seed cells of the L1210 cell line.
Cytosine Arabinoside must be given every three hours.
Mice were inoculated intraperitoneally on day 0 with a million cells of murine leukemia L1210. Drug was given qd days 1, 4 and 7. Increased life span is the mean increase in the treated group presented as a percentage of the mean life span of control mice.
Mice were inoculated intraperitoneally on day 0 with a million cells of murine leukemia L1210. Drugs were given qd days 1, 3, 5 and 7. Increased life span is presented as a percentage of the mean life span of control mice.

L1210 cells [7] = assay: L1210 cells surviving treatment (% of original inoculum); format: in vivo, mouse; conditions: single QD day 1 ip
Description: as §1
as §2, with “line. However for the purposes of tests with the L1210 cell line in testing the compounds of the invention for antitumor activity, a log greater, i.e. 10^6 cells were utilized.” for “line.”
Tables 2-a and 2-b illustrate a dose response for Compound 19 against L1210 inoculated mice expressed as both increased life span compared to control and as the number of cells of the original inoculum surviving drug treatment. As is evident from the various regimens of drug treatment shown in Tables 2-a and 2-b, effective therapeutic effects are noted and a dose response to Compound 19 is evident. […] Cytosine Arabinoside must be given every three hours. Test results are given utilizing standard protocols based on mean survival time and are expressed as T/C percentages (treated animals/control animals).

[8] = tested on: L1210/6MP, 6TG, 6TGR cells; assay: Life span of mice inoculated with L1210 resistant to 6MP, 6TG, 6TGR; format: in vivo, mouse; conditions: for activity against drug resistant cells (words): mouse, in vivo
[9] = tested on: drug resistant cell lines; assay: Generation of drug resistant cell lines

Sc1ncnc2nc[nH]c12 [6-Mercaptopurine]
Residual cells (% of control brain) (L1210 cells [1]): 37%
Activity rating δT/δC [2]: 99
inducement of drug resistant cell lines [3]: inducement of drug resistant cell line occurs
activity against adenocarcinoma (adenocarcinoma): highly active against adenocarcinoma

NS(=O)(=O)c1ncnc2c1ncn2[C@@H]1O[C@H](CO)[C@@H](O)[C@H]1O [Compound 8, 9-β-D-Ribofuranosyl-9H-purine-6-sulfonamide]
Max. sol. dosage [4]: 480 mg/kg
MTD ([5]; ip): 173 mg/kg

NS(=O)(=O)c1ncnc2c1ncn2[C@@H]1O[C@H](CO)[C@@H](O)[C@@H]1O [Compound 12, 9-β-D-Arabinofuranosyl-9H-purine-6-sulfonamide]
Max. sol. dosage [4]: 173 mg/kg
MTD ([5]; ip): 173 mg/kg

NSc1ncnc2c1ncn2[C@H]1C[C@H](O)[C@@H](CO)O1 [Compound 14, 9-(2-Deoxy-β-D-erythro-pentofuranosyl)-9H-purine-6-sulfenamide]
Max. sol. dosage [4]: 800 mg/kg
MTD ([5]; ip): 288 mg/kg

N[S+]([O-])c1ncnc2c1ncn2[C@H]1C[C@H](O)[C@@H](CO)O1 (stereo partly drawn) [Compound 15, 9-(2-Deoxy-β-D-erythro-pentofuranosyl)-9H-ourine-6-sulfinamide]
% ILS (L1210 cells [6]; single QD day 1 ip): 33%
Cells surviving treatment (% of day 0 innoc.) (L1210 cells [7]): 16%
Max. sol. dosage [4]: 800 mg/kg
MTD ([5]; ip): 104 mg/kg

NS(=O)(=O)c1ncnc2c1ncn2[C@H]1C[C@H](O)[C@@H](CO)O1 [Compound 16, 9-(2-Deoxy-β-D-erythro-pentofuranosYl)-9H-purine-6-sulfonamide]
Max. sol. dosage [4]: 800 mg/kg
MTD ([5]; ip): 173 mg/kg

NSc1nc(N)nc2c1ncn2[C@@H]1O[C@H](CO)[C@@H](O)[C@H]1O [Compound 18, 2-amino-9-β-D-ribofuranosyl-9H-purine-6-sulfenamide]
oral activity (words) (L1210 cells [6]): Oral activity is seen
Activity against I.P. L1210 cells, T/C (L1210 cells [6]; oral 8 mg/kg, qd day 1): 147.0%
Activity against I.P. L1210 cells, T/C (L1210 cells [6]; oral 13 mg/kg, qd day 1): 147.0%
Activity against I.P. L1210 cells, T/C (L1210 cells [6]; oral 22 mg/kg, qd day 1): 153.0%
% ILS (L1210 cells [6]; single agent day 1, Compound 19 173 mg/kg, Compound 18 22 mg/kg (Table 12)): 51%
intracranial activity (L1210 cells [1]): active intracranially
Activity against I.C. L1210 cells, Cell Kill (L1210 cells [1]): 57.3 x
crossing of blood brain barrier / CNS penetration (words) (L1210 cells [1]): effectively cross the blood brain barrier
Activity against I.P. L1210 cells resistant to 6MP, 6TG, 6TGR, T/C ([8]; 22 mg/kg, qd day 1): 93.8%
activity against drug resistant cells (words) [8]: shows no activity
Max. sol. dosage [4]: 22 mg/kg
MTD ([5]; ip): 22 mg/kg
generation of drug resistant cell lines (words) [9]: does generate drug resistant cell lines; also recorded: generates drug resistant cells

Nc1nc(S(N)(=O)=O)c2ncn([C@@H]3O[C@H](CO)[C@@H](O)[C@H]3O)c2n1 [Compound 20, 2-amino-9-β-D-ribofuranosyl-9H-purine-6-sulfonamide]
oral activity (words) (L1210 cells [6]): not present
Activity against I.P. L1210 cells, T/C (L1210 cells [6]; oral 22 mg/kg, bid days 1,4,7): 103.3%
Activity against I.P. L1210 cells, T/C (L1210 cells [6]; oral 37 mg/kg, bid days 1,4,7): 103.3%
Activity against I.P. L1210 cells, T/C (L1210 cells [6]; oral 62 mg/kg, bid days 1,4,7): 103.3%
oral activity (words) (L1210 cells [6]; listed as 6-sulfonamide analog): lack of oral activity
intracranial activity (L1210 cells [1]): no intracranial activity is seen
Activity against I.C. L1210 cells, Cell Kill (L1210 cells [1]): 0.0 x
crossing of blood brain barrier / CNS penetration (words) (L1210 cells [1]): lack of oral activity and CNS penetration
Activity against I.P. L1210 cells resistant to 6MP, 6TG, 6TGR, T/C ([8]; 22 mg/kg, bid days 1,4,7): 106.7%
Activity against I.P. L1210 cells resistant to 6MP, 6TG, 6TGR, T/C ([8]; 37 mg/kg, bid days 1,4,7): 130.0%
Activity against I.P. L1210 cells resistant to 6MP, 6TG, 6TGR, T/C ([8]; 62 mg/kg, bid days 1,4,7): 163.3%
activity against drug resistant cells (words) [8]: active
Max. sol. dosage [4]: 62 mg/kg
MTD ([5]; ip): 62 mg/kg

NSc1nc(N)nc2c1ncn2[C@H]1C[C@H](O)[C@@H](CO)O1 [Compound 22, 2-Amino-9-(2-deoxy-β-D-erythro-pentofuranosyl)-9H-purine-6-sulfenamide]
Max. sol. dosage [4]: 173 mg/kg
MTD ([5]; ip): 173 mg/kg

Nc1nc([S+](N)[O-])c2ncn([C@H]3C[C@H](O)[C@@H](CO)O3)c2n1 (stereo partly drawn) [Compound 23, 2-amino-9-(2-deoxy-β-D-erythro-pentofuranosyl)-9H-purine-6-sulfinamide]
in vivo antitumor activity (L1210 cells [6]; mouse, in vivo): good activity
Max. sol. dosage [4]: 480 mg/kg
water solubility [4]: increased water solubility
MTD ([5]; ip): 173 mg/kg

Nc1nc(S(N)(=O)=O)c2ncn([C@H]3C[C@H](O)[C@@H](CO)O3)c2n1 [Compound 24, 2-Amino-9-(2-deoxy-β-D-erythro-pentofuranosyl)-9H-purine-6-sulfonamide]
Max. sol. dosage [4]: 480 mg/kg
MTD ([5]; ip): 288 mg/kg

NSc1nc(N)nc2c1ncn2[C@@H]1O[C@@H]2COP(=O)(O)O[C@H]2[C@H]1O [Compound 29, 2-Amino-9-β-D-ribofuranosylpurine-6-sulfenamide 3',5'-cyclic phosphate]
% ILS (L1210 cells [6]; single QD day 1 ip): 59%
Cells surviving treatment (% of day 0 innoc.) (L1210 cells [7]): 1.7%
Max. sol. dosage ([4]; in water): 480 mg/kg
MTD [5]: 480 mg/kg

Nc1nc([S+](N)[O-])c2ncn([C@@H]3O[C@@H]4COP(=O)(O)O[C@H]4[C@H]3O)c2n1 (stereo partly drawn) [Compound 30, 2-Amino-9-β-D-ribofuranosylpurine-6-sulfinamide 3',5'-cyclic phosphate]
% ILS (L1210 cells [6]; single QD day 1 ip): 59%
Cells surviving treatment (% of day 0 innoc.) (L1210 cells [7]): 1.7%
Max. sol. dosage ([4]; in water): 288 mg/kg
MTD [5]: 288 mg/kg

NSc1nc(N)nc2c1ccn2[C@H]1C[C@H](O)[C@@H](CO)O1 [Compound 38, 2-Amino-7-(2-deoxy-β-D-erythro-pentofuranosyl)pyrrolo[2,3-d]pyrimidine-4-sulfenamide]
Max. sol. dosage [4]: 173 mg/kg
MTD ([5]; ip): 173 mg/kg

Nc1ccn([C@@H]2O[C@H](CO)[C@@H](O)[C@@H]2O)c(=O)n1 [Cytosine Arabinoside]
Residual cells (% of control brain) (L1210 cells [1]): 15%
Activity rating δT/δC [2]: 73
inducement of drug resistant cell lines [3]: inducement of drug resistant cell line occurs
